Key:
[1] = Relative lipophilicity (capacity factor k’) by reversed-phase HPLC; assay type: physicochemical; conditions: methanol-phosphoric acid buffer eluent, pH 2
Description: The relative lipophilicity of 6 was determined as capacity factor k’ (k’ = (tretention - tsolvent) / tsolvent) by reversed-phase HPLC using a methanol-phosphoric acid buffer eluent system at pH 2. […] This method has already been described elsewhere. The capacity factor k’ (k’ = (tretention - tsolvent) / tsolvent) was determined using reversed-phase HPLC and enables different (radio)folates to be compared based on their polarity. The values determined can be used to give hint to the in vivo behavior in terms of the degree of hepatobiliary excretion by comparison with literature examples.

[2] = tested on: KB tumor-bearing mice; test: Ex vivo biodistribution in human KB tumor-bearing nude mice; conditions: for Ratio of tumor to Blood / Ratio of tumor to Kidney / Ratio of tumor to Liver / %ID/g Blood / %ID/g Bone / %ID/g Feces / %ID/g Gall bladder / %ID/g Heart / %ID/g Intestines (empty) / %ID/g Tumor / %ID/g Kidneys / %ID/g Liver / %ID/g Lung / %ID/g Muscle / %ID/g Salivary glands / %ID/g Spleen / %ID/g Stomach (empty): n = 3; for %ID/g Tumor: KB tumor
Description: All animal experiments were approved by the local veterinary department and complied with Swiss and local laws on animal protection. Female CD-1 nude mice (Charles River, Sulzfeld, Germany) were fed with a folate-deficient rodent diet (Harlan Laboratories, Indianapolis, IN, USA). After an acclimatization period of 5 to 7 days, human KB tumor cells (5 × 10^6 cells in 0.1 mL sterile phosphate-buffered saline (PBS)) were inoculated subcutaneously on both shoulders of each mouse. Twelve days later, the animals were intravenously injected with [^18 F]12 (approximately 5 MBq, 100 μL). […] Animals were euthanized at the indicated time points, and selected organs and tissues were collected, weighed, and measured in a γ-counter. The incorporated radioactivity was expressed as percentage injected dose per gram (%ID/g) of tissue. PET/computed tomography (CT) experiments were performed with a dedicated small-animal PET/CT scanner (eXplore Vista PET/CT, Sedecal, Algete, Spain/GE Healthcare). Animals were intravenously injected with [^18 F]12 (approximately 13 MBq, 100 μL). For scanning, mice were anesthetized with isoflurane in an air/oxygen mixture. The PET scans were acquired from 60 to 90 min post-injection (p.i.) followed by a CT. After acquisition, PET data were reconstructed in user-defined time frames, and the fused datasets of PET and CT were analyzed with PMOD software (version 3.4).
Biodistribution studies of the new ^18 F-folate [^18 F]12 were performed using human KB tumor-bearing nude mice, determined at 30, 60, and 90 min post-injection. […] Selective blocking of the folate receptors led to a decrease in specific radiotracer accumulation of 94% in KB tumors and 99% in kidneys (Figure 2). The strong blocking effect reflected the high specificity of the tracer to the FR in vivo. Unspecific liver uptake decreased from 5.2%ID/g to 2.1%ID/g over 90 min similar to the background radioactivity in the feces and gall bladder (Table 2), which is believed to be a beneficial effect of the increased polarity of this novel radiofolate. Compared to the biodistribution profile at 45 min post-injection of the former ^18 F-click folate by Ross and co-workers, the specific uptake of the original ^18 F-click folate in KB tumors was retained, whereas the specific kidney uptake more than doubled. This indicated a stronger tendency to renal excretion, more likely a result of the increased polarity of the new ^18 F-folate [^18 F]12. Additionally, the highest unspecific background accumulation in the gall bladder was reduced by half. This background reduction correlated with the more renal excretion and the two times lower k’ value as an indicator of lipophilicity of the here presented radiofolate. […] On the other hand, the still increased uptake levels in the gall bladder and feces were evidence of a prominent hepatobiliary elimination pathway of [^18 F]12. However, distinct changes in the molecular structure of the folate-based radioconjugate [^18 F]12 induced a higher polarity into the lead molecule ^18 F-click folate and a significant reduction of the in vivo background.
Figure 2 Results of ex vivo biodistribution studies under control and blockade conditions using [^18 F]12 in mice. The human KB tumor-bearing nude mice were euthanized 60 min post-injection. Data are expressed as percentage injected dose per gram tissue (%ID/g).

[3] = 60 min p.i., 100 μg native folic acid before tracer
[4] = 60 min p.i. blockade (100 μg folic acid 5 min before tracer)

16-(4-(((2-amino-4-oxo-3,4-dihydropteridin-6-yl)methyl)amino)benzamido)-1-(4-(2-(2-(2-[^18 F]fluoroethoxy)ethoxy)ethoxy)-1H-1,2,3-triazol-1-yl)-13-oxo-3,6,9-trioxa-12-azaheptadecan-17-oic acid [[^18 F]12]
capacity factor k’ [1]: 1.12
Ratio of tumor to Blood ([2]; 30 min p.i.): 16.81 ± 3.13
Ratio of tumor to Kidney ([2]; 30 min p.i.): 0.08 ± 0.02
Ratio of tumor to Liver ([2]; 30 min p.i.): 0.69 ± 0.22
decrease in specific radiotracer accumulation by FR blocking, KB tumors [2, 3]: 94%
decrease in specific radiotracer accumulation by FR blocking, kidneys [2, 3]: 99%
Ratio of tumor to Blood ([2]; 60 min p.i.): 18.95 ± 2.68
Ratio of tumor to Kidney ([2]; 60 min p.i.): 0.08 ± 0.01
Ratio of tumor to Liver ([2]; 60 min p.i.): 0.86 ± 0.19
Ratio of tumor to Blood ([2]; 90 min p.i.): 22.72 ± 6.73
Ratio of tumor to Kidney ([2]; 90 min p.i.): 0.09 ± 0.01
Ratio of tumor to Liver ([2]; 90 min p.i.): 1.55 ± 0.15
%ID/g Blood ([2]; 30 min p.i.): 0.20 ± 0.02 %ID/g
%ID/g Blood [2, 4]: 0.04 ± 0.01 %ID/g
%ID/g Blood ([2]; 60 min p.i.): 0.18 ± 0.01 %ID/g
%ID/g Blood ([2]; 90 min p.i.): 0.16 ± 0.02 %ID/g
%ID/g Bone ([2]; 30 min p.i.): 1.47 ± 0.05 %ID/g
%ID/g Bone [2, 4]: 0.06 ± 0.06 %ID/g
%ID/g Bone ([2]; 60 min p.i.): 1.13 ± 0.21 %ID/g
%ID/g Bone ([2]; 90 min p.i.): 0.84 ± 0.16 %ID/g
%ID/g Feces ([2]; 30 min p.i.): 164.2 ± 72.5 %ID/g
%ID/g Feces [2, 4]: 105.5 ± 128.7 %ID/g
%ID/g Feces ([2]; 60 min p.i.): 29.48 ± 19.04 %ID/g
%ID/g Feces ([2]; 90 min p.i.): 11.36 ± 4.29 %ID/g
%ID/g Gall bladder ([2]; 30 min p.i.): 309.3 ± 187.6 %ID/g
%ID/g Gall bladder [2, 4]: 775.5 ± 206.5 %ID/g
%ID/g Gall bladder ([2]; 60 min p.i.): 133.2 ± 67.38 %ID/g
%ID/g Gall bladder ([2]; 90 min p.i.): 55.13 %ID/g
%ID/g Heart ([2]; 30 min p.i.): 1.81 ± 0.61 %ID/g
%ID/g Heart [2, 4]: 0.02 ± 0.01 %ID/g
%ID/g Heart ([2]; 60 min p.i.): 1.09 ± 0.07 %ID/g
%ID/g Heart ([2]; 90 min p.i.): 0.79 ± 0.16 %ID/g
%ID/g Intestines (empty) ([2]; 30 min p.i.): 23.52 ± 7.37 %ID/g
%ID/g Intestines (empty) [2, 4]: 14.72 ± 19.32 %ID/g
%ID/g Intestines (empty) ([2]; 60 min p.i.): 4.56 ± 2.31 %ID/g
%ID/g Intestines (empty) ([2]; 90 min p.i.): 1.92 ± 0.52 %ID/g
%ID/g Tumor ([2]; 30 min p.i.): 3.4 %ID/g
%ID/g Tumor ([2]; 30 min p.i., listed as 12): 3.39 ± 0.54 %ID/g
%ID/g Tumor [2, 4]: 0.19 ± 0.07 %ID/g
%ID/g Tumor ([2]; 60 min p.i.): 3.39 ± 0.44 %ID/g
%ID/g Tumor ([2]; 90 min p.i.): 3.54 ± 0.68 %ID/g
%ID/g Kidneys ([2]; 30 min p.i.): 42 %ID/g
%ID/g Kidneys ([2]; 30 min p.i., listed as 12): 41.80 ± 2.58 %ID/g
%ID/g Kidneys [2, 4]: 0.26 ± 0.08 %ID/g
%ID/g Kidneys ([2]; 60 min p.i.): 40.77 ± 4.34 %ID/g
%ID/g Kidneys ([2]; 90 min p.i.): 41.04 ± 7.04 %ID/g
%ID/g Liver ([2]; 30 min p.i.): 5.2 %ID/g
%ID/g Liver ([2]; 30 min p.i., listed as 12): 5.24 ± 1.57 %ID/g
%ID/g Liver [2, 4]: 0.21 ± 0.09 %ID/g
%ID/g Liver ([2]; 60 min p.i.): 4.05 ± 0.67 %ID/g
%ID/g Liver ([2]; 90 min p.i.): 2.1 %ID/g
%ID/g Liver ([2]; 90 min p.i., listed as 12): 2.30 ± 0.54 %ID/g
%ID/g Lung ([2]; 30 min p.i.): 1.21 ± 0.15 %ID/g
%ID/g Lung [2, 4]: 0.04 ± 0.03 %ID/g
%ID/g Lung ([2]; 60 min p.i.): 1.02 ± 0.7 %ID/g
%ID/g Lung ([2]; 90 min p.i.): 0.86 ± 0.17 %ID/g
%ID/g Muscle ([2]; 30 min p.i.): 1.91 ± 0.25 %ID/g
%ID/g Muscle [2, 4]: 0.08 ± 0.09 %ID/g
%ID/g Muscle ([2]; 60 min p.i.): 1.64 ± 0.46 %ID/g
%ID/g Muscle ([2]; 90 min p.i.): 1.17 ± 0.03 %ID/g
%ID/g Salivary glands ([2]; 30 min p.i.): 8.01 ± 1.16 %ID/g
%ID/g Salivary glands [2, 4]: 0.20 ± 0.18 %ID/g
%ID/g Salivary glands ([2]; 60 min p.i.): 9.28 ± 1.68 %ID/g
%ID/g Salivary glands ([2]; 90 min p.i.): 7.03 ± 1.98 %ID/g
%ID/g Spleen ([2]; 30 min p.i.): 0.53 ± 0.14 %ID/g
%ID/g Spleen [2, 4]: 0.06 ± 0.03 %ID/g
%ID/g Spleen ([2]; 60 min p.i.): 0.49 ± 0.04 %ID/g
%ID/g Spleen ([2]; 90 min p.i.): 0.43 ± 0.08 %ID/g
%ID/g Stomach (empty) ([2]; 30 min p.i.): 2.18 ± 0.76 %ID/g
%ID/g Stomach (empty) [2, 4]: 0.12 ± 0.11 %ID/g
%ID/g Stomach (empty) ([2]; 60 min p.i.): 1.39 ± 0.13 %ID/g
%ID/g Stomach (empty) ([2]; 90 min p.i.): 0.96 ± 0.37 %ID/g
